The pIC50 is the negative decadic logarithm of the IC50, by convention in mol/L.

pIC50: −log10 of the molar value. A value given as a limit tells only on which side of the number the result lay.

One assay concerns the target T1, Δ49N-hChoKα (Homo sapiens, UniProt P35790).
T1 construct: cDNA fragment 362-1534, corresponding to aminoacids 50 457; GST (N, cleaved yes); PreScission Protease recognition site (N); made in house; host or cells: Escherichia coli BL21pLysS (DE3)
The experiment in a line: Biochemical kinase inhibition assay (Kinase-Glo luminescent) on Δ49N-hChoKα. Particulars: recombinant Δ49N-hChoKα 2.2 nM, ATP 5 μM, choline 5 μM, 60 min rt; read-out: ChoKα IC50. The method, boiled down: (§1)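 Kinase-Glo residual-ATP luminescence with in-house E. coli-expressed, tag-cleaved enzymes: Δ49N-hChoKα 2.2 nM with 5 μM choline; hChoKβ FL 30 nM with 20 μM choline. Both used 5 μM ATP, 60 min at room temperature, 1% DMSO, pH 7.5 Hepes buffer. IC50 from 4-parameter fits of ten 3-fold dilutions from 10 μM.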
For orientation: Kinase-Glo measures the ATP left after a reaction by luminescence.

Another assay deals with T2, hChoKβ FL (Homo sapiens, UniProt Q9Y259).
T2 construct: hChoKβ full length (FL), corresponding to aminoacids 2-395; GST (N, cleaved yes); PreScission Protease recognition site (N); made in house; host or cells: Escherichia coli BL21pLysS (DE3)
T2 sequence (Q9Y259 2-395): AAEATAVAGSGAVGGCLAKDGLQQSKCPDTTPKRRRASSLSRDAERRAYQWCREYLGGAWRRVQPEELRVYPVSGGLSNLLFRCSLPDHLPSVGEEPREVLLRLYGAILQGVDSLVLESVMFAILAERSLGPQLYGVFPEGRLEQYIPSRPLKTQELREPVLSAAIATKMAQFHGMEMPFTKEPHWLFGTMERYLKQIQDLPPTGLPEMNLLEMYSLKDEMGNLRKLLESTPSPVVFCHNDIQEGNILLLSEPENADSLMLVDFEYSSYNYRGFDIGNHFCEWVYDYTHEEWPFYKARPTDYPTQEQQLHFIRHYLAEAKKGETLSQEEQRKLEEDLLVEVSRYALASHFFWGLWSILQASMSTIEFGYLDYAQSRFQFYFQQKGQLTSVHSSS
Put plainly: Biochemical kinase inhibition assay (Kinase-Glo luminescent) on hChoKβ FL. The settings on record: recombinant hChoKβ FL 30 nM, ATP 5 μM, choline 20 μM, 60 min rt; read-out: ChoKβ IC50. In a few lines:
as §1

T1 sequence (P35790 50-439 isoform P35790-2): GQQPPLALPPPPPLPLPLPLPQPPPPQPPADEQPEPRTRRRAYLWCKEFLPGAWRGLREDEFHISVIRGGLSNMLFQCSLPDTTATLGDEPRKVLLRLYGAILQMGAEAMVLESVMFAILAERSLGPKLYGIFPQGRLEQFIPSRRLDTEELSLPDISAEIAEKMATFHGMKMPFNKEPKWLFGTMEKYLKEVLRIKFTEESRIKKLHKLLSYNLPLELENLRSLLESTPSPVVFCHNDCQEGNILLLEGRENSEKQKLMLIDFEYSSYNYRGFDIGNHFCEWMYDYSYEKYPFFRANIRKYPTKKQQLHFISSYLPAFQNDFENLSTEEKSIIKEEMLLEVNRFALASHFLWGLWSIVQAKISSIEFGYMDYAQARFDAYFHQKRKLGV

In the case of `CC1CCN(C2CCN(C(=O)C(F)(F)c3csc(NC(=O)c4n[nH]c5c4C(C)(C)Cc4cnc(N)nc4-5)n3)CC2)CC1` [compound 191], the pIC50 at Δ49N-hChoKα was 8.15; at hChoKβ FL, 6.52.
The corresponding values for `CC1(C)Cc2cnc(N)nc2-c2[nH]nc(C(=O)Nc3nc(COC4CCN(C5CCCCCC5)CC4)cs3)c21` [compound 223] are 8.40 and 6.74.
With `CC1(C)Cc2cnc(N)nc2-c2[nH]nc(C(=O)Nc3ccc(C(=O)Nc4ccc(CN5CCCCC5)cc4)cc3)c21` [compound 59], the figures for the pIC50 at Δ49N-hChoKα and on hChoKβ FL were 7.49 and 6.13, respectively.
The corresponding values for `CC1(C)Cc2cnc(N)nc2-c2[nH]nc(C(=O)Nc3cccc(CN4CCC(N5CCCCC5)CC4)c3)c21` [compound 110] are 6.87 and 5.55.
The corresponding values for `CC1(C)Cc2cnc(N)nc2-c2[nH]nc(C(=O)Nc3ccc(CNc4ccc(CN5CCC(N6CCCCC6)CC5)cc4)cc3)c21` [compound 126] are 8.52 and 6.23.
`CC1(C)Cc2cnc(N)nc2-c2[nH]nc(C(=O)Nc3nc(COC4CCN(C5CCCCCC5)CC4)cs3)c21` [compound 209]: the pIC50 at Δ49N-hChoKα was 8.30; on hChoKβ FL it was 6.64.
Take `CC1(C)Cc2cnc(N)nc2-c2[nH]nc(C(=O)Nc3nc(CC(=O)NC4CCN(C5CCCCC5)CC4)cs3)c21` [compound 145]: the pIC50 was 7.96 on Δ49N-hChoKα and 6.03 at hChoKβ FL.
The corresponding values for `CN1CCc2nc(NC(=O)c3n[nH]c4c3C(C)(C)Cc3cnc(N)nc3-4)sc2C1` [compound 151] are 6.76 and 5.27.
The corresponding values for `CN1CCC(NC(=O)c2ccc(NC(=O)c3nn(CCCO)c4c3C(C)(C)Cc3cnc(N)nc3-4)cc2)CC1` [compound 9] are 6.16 and 5.27.
Take `CC1(C)Cc2cnc(N)nc2-c2[nH]nc(C(=O)Nc3ccc(OC(F)(F)F)cc3)c21` [compound 3]: the results for the pIC50 on Δ49N-hChoKα and at hChoKβ FL were 6.00 and < 5.00, respectively.
As for `CC1(C)Cc2cnc(N)nc2-c2[nH]nc(C(=O)Nc3nc(CC(=O)N4CC[C@@H](O)C4)cs3)c21` [compound 87], the pIC50 at Δ49N-hChoKα is 6.83; at hChoKβ FL it was < 5.00.
On to `CC1CCN(C2CCN(C(=O)Cc3csc(NC(=O)c4nn(C)c5c4CC(C)(C)c4cnc(N)nc4-5)n3)CC2)CC1` [compound 225], for which the pIC50 on Δ49N-hChoKα was 8.05; at hChoKβ FL, 5.65.
For the compound `CC1(C)Cc2cnc(N)nc2-c2[nH]nc(C(=O)Nc3ccc(C(=O)N4CCC(NC(=O)CCCO)CC4)cc3)c21` [compound 53], the pIC50 at Δ49N-hChoKα is 6.15; on hChoKβ FL, 5.45.
For the compound `CC1(C)Cc2cnc(N)nc2-c2[nH]nc(C(=O)Nc3nccs3)c21` [compound 61], the pIC50 is 6.62 on Δ49N-hChoKα and 5.58 at hChoKβ FL.
For `CN(C)C1CCN(C(=O)Cc2csc(NC(=O)c3n[nH]c4c3C(C)(C)Cc3cnc(N)nc3-4)n2)CC1` [compound 89], the pIC50 on Δ49N-hChoKα was 8.00; on hChoKβ FL, 6.40.
The corresponding values for `CC1(C)Cc2cnc(N)nc2-c2[nH]nc(C(=O)Nc3nc(COC4CCN(CC5CCCCC5)CC4)cs3)c21` [compound 212] are 8.10 and 6.34.
Regarding `CC1(C)Cc2cnc(N)nc2-c2[nH]nc(C(=O)NCc3ccc(C(=O)N4CCC(N5CCCCC5)CC4)cc3)c21` [compound 165], the pIC50 on Δ49N-hChoKα is 6.74; on hChoKβ FL, 7.16.
In the same order, the values of `Cc1csc(NC(=O)c2nn(CCO)c3c2C(C)(C)Cc2cnc(N)nc2-3)n1` [compound 182] are 6.34 and < 5.00.
On to `CC1(C)Cc2cnc(N)nc2-c2[nH]nc(C(=O)Nc3cccc(C(=O)O)c3)c21` [compound 18], for which the figures for the pIC50 on Δ49N-hChoKα and on hChoKβ FL were 6.19 and 5.20, respectively.
The corresponding values for `CC1(C)Cc2cnc(N)nc2-c2[nH]nc(C(=O)N3CCC(N4CCCC4)CC3)c21` [compound 36] are 6.32 and < 5.00.
With `CC1(C)Cc2cnc(N)nc2-c2[nH]nc(C(=O)Nc3nc(CC(=O)NC4CCCCC4)cs3)c21` [compound 35], the pIC50 on Δ49N-hChoKα is 7.33; at hChoKβ FL, 6.36.
With `COc1cccc(NC(=O)c2n[nH]c3c2C(C)(C)Cc2cnc(N)nc2-3)c1` [compound 1], the negative logarithm of the IC50 (pIC50) is 6.59 on Δ49N-hChoKα and 5.80 on hChoKβ FL.
As to `Cn1nc(C(=O)Nc2nc(CC(=O)N3CCC(N4CCCCC4)CC3)cs2)c2c1-c1nc(N)ncc1CC2(C)C` [compound 108], the pIC50 at Δ49N-hChoKα was 8.30; on hChoKβ FL, 5.40.
As for `CC1(C)Cc2cnc(N)nc2-c2[nH]nc(C(=O)Nc3nc(CN4CCC(N)CC4)cs3)c21` [compound 152], the pIC50 on Δ49N-hChoKα was 6.27; on hChoKβ FL, < 5.00.
Regarding `CN(C)C1CCN(Cc2ccc(NC(=O)c3n[nH]c4c3C(C)(C)Cc3cnc(N)nc3-4)cc2)CC1` [compound 118], the pIC50 on Δ49N-hChoKα was 7.48; on hChoKβ FL, 7.14.
Regarding `CC(C)(C)NC(=O)NC1CCN(C(=O)Cc2csc(NC(=O)c3n[nH]c4c3C(C)(C)Cc3cnc(N)nc3-4)n2)CC1` [compound 71], the values for the pIC50 on Δ49N-hChoKα and on hChoKβ FL were 8.05 and 5.71, respectively.
Regarding `CC1(C)Cc2c(C(=O)Nc3nc(COC4CCN(C5CCCCCC5)CC4)cs3)n[nH]c2-c2nc(N)ncc21` [compound 232], the pIC50 is 8.10 at Δ49N-hChoKα and 6.84 on hChoKβ FL.
For `CN(C(=O)c1nn(C)c2c1C(C)(C)Cc1cnc(N)nc1-2)c1nc(CC(=O)N2CCC(N3CCCCC3)CC2)cs1` [compound 124], the pIC50 at Δ49N-hChoKα is 6.73; on hChoKβ FL it was < 5.00.
As for `Cc1nc(NC(=O)c2n[nH]c3c2C(C)(C)Cc2cnc(N)nc2-3)sc1C(=O)N1CCC(N2CCCCC2)CC1` [compound 78], the negative logarithm of the IC50 (pIC50) on Δ49N-hChoKα was 6.66; on hChoKβ FL it was 5.59.
With `CCOC(=O)c1cccc(NC(=O)c2n[nH]c3c2C(C)(C)Cc2cnc(N)nc2-3)c1` [compound 17], the pIC50 was 6.10 at Δ49N-hChoKα and 5.64 on hChoKβ FL.
Take `CC1(C)Cc2cnc(N)nc2-c2[nH]nc(C(=O)Nc3nc(CN4CCC(N5CCCCC5)CC4)cs3)c21` [compound 143]: the pIC50 was 6.85 at Δ49N-hChoKα and 5.67 on hChoKβ FL.
The corresponding values for `CNC1CCN(C(=O)Cc2csc(NC(=O)c3n[nH]c4c3C(C)(C)Cc3cnc(N)nc3-4)n2)CC1` [compound 119] are 7.28 and 7.18.
In the case of `CN(C)[C@@H]1CCN(Cc2csc(NC(=O)c3nn(C)c4c3C(C)(C)Cc3cnc(N)nc3-4)n2)C1` [compound 147], the pIC50 at Δ49N-hChoKα is 6.23; at hChoKβ FL, < 5.00.
As for `CC1(C)Cc2cnc(N)nc2-c2[nH]nc(C(=O)Nc3nc(C(=O)NC4CCCCC4)cs3)c21` [compound 68], the pIC50 at Δ49N-hChoKα was 6.79; at hChoKβ FL it was < 5.00.
In the case of `CC1CCN(C2CCN(C(=O)Cc3csc(NC(=O)c4n[nH]c5c4C(C)(C)Cc4cnc(N)nc4-5)n3)CC2)CC1` [compound 58], the pIC50 is 8.70 at Δ49N-hChoKα and 7.09 at hChoKβ FL.
The corresponding values for `CC1(C)CCC(N2CCC(OCc3csc(NC(=O)c4n[nH]c5c4C(C)(C)Cc4cnc(N)nc4-5)n3)CC2)CC1` [compound 190] are 8.10 and 6.26.
As to `CC1(C)Cc2cnc(N)nc2-c2[nH]nc(C(=O)Nc3nc(CC(=O)N4CCN(c5ccccc5)CC4)cs3)c21` [compound 160], the pIC50 at Δ49N-hChoKα was 7.60; on hChoKβ FL, 5.65.
`CC1CCN(C2CCN(C(=O)Cc3csc(NC(=O)c4n[nH]c5c4CC(C)(C)c4cnc(N)nc4-5)n3)CC2)CC1` [compound 231]: the pIC50 was 8.52 at Δ49N-hChoKα and 6.98 at hChoKβ FL.
As to `CC(C)(C)OC(=O)NC1CCN(Cc2cccc(NC(=O)c3n[nH]c4c3C(C)(C)Cc3cnc(N)nc3-4)c2)CC1` [compound 114], the pIC50 at Δ49N-hChoKα is 6.25; on hChoKβ FL, 5.62.
The corresponding values for `CC1(C)Cc2cnc(N)nc2-c2[nH]nc(C(=O)Nc3ncc(CC(=O)NC4CCCCC4)s3)c21` [compound 73] are 6.86 and 6.22.
For `CC1(C)Cc2cnc(N)nc2-c2[nH]nc(C(=O)Nc3cccc(C=O)c3)c21` [compound 107], the figures for the pIC50 on Δ49N-hChoKα and at hChoKβ FL were 6.13 and 5.57, respectively.
Regarding `CC1(C)Cc2cnc(N)nc2-c2[nH]nc(C(=O)Nc3ccc(C(=O)N4CCC(N)CC4)cc3)c21` [compound 49], the negative logarithm of the IC50 (pIC50) at Δ49N-hChoKα is 6.21; on hChoKβ FL it was 6.12.
Turning to `CC1(C)Cc2cnc(N)nc2-c2[nH]nc(C(=O)Nc3cccc(CC(=O)N4CCC(N5CCCCC5)CC4)c3)c21` [compound 120], the values for the pIC50 on Δ49N-hChoKα and at hChoKβ FL were 7.72 and 6.04, respectively.
Regarding `CC1(C)Cc2cnc(N)nc2-c2[nH]nc(C(=O)Nc3ccc(CC(=O)N4CCC(N5CCCCC5)CC4)cc3)c21` [compound 98], the results for the pIC50 at Δ49N-hChoKα and at hChoKβ FL were 7.24 and 5.89, respectively.
Consider `CC1(C)Cc2cnc(N)nc2-c2[nH]nc(C(=O)Nc3nc4ccccc4s3)c21` [compound 62], for which the negative logarithm of the IC50 (pIC50) at Δ49N-hChoKα was 7.07; at hChoKβ FL it was 6.33.
As for `CN(C)C1CCN(C(=O)c2ccc(NC(=O)c3n[nH]c4c3C(C)(C)Cc3cnc(N)nc3-4)cc2)CC1` [compound 14], the negative-log IC50 (pIC50) is 6.70 on Δ49N-hChoKα and 7.43 on hChoKβ FL.

For the origin of these results see patent publication US11117901B2, “Substituted pyrazolo[4,3-h]quinazolines as choline kinase inhibitors” (NERVIANO MEDICAL SCIENCES S.R.L., priority 2017, dated 2021).
